The values below come from patent US7196083B2, “Heteropolycyclic inhibitors of protein kinases” (priority 2000, dated 2007).

Like-named read-outs stand apart in the source and are kept apart here.

Data set [1] deals with PC3 (human prostate carcinoma). The experiment in a line: [3H] thymidine uptake cell proliferation assay, PC3. The format is cell-based. The settings on record: PC-3, read-out: Cell Proliferation Effects (IC50 (nM)).
The subject of another data set is M3 murine melanoma cells. The experiment in a line: [3H] thymidine uptake cell proliferation assay, M3. Type of data set: cell-based. The settings on record: Mus musculus, read-out: Cell Proliferation Effects (IC50 (nM)).
The target of data set [2] is PKB, full-length recombinant bovine protein, alpha form (Bos taurus, UniProt Q01314). The experiment in a line: PKB inhibition in vitro enzyme assay (radioactive phosphate incorporation, scintillation counting). Type of data set: biochemical. Particulars: for IC50: PKB in vitro enzyme assay, 15 min at room temperature.
PKB, full-length recombinant bovine protein, alpha form, sequence (Q01314 whole entry): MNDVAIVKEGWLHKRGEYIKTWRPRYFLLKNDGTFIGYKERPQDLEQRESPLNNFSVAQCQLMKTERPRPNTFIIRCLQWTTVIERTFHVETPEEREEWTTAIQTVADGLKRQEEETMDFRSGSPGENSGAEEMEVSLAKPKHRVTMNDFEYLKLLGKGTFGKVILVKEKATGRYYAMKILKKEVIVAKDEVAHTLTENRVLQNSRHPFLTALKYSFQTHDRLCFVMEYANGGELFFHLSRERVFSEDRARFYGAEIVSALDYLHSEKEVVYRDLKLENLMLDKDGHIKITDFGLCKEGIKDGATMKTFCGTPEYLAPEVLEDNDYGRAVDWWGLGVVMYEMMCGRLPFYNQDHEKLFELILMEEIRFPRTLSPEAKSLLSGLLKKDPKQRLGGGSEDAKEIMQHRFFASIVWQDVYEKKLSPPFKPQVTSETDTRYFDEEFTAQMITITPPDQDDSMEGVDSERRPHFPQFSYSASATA
Data set [3] has as its system SKOV-3 (human ovarian carcinoma). Briefly: [3H] thymidine uptake cell proliferation assay, SKOV3. The format is cell-based. The settings on record: SK-OV-3, read-out: Cell Proliferation Effects (IC50 (nM)).
The test system of data set [4] is NIH-3T3 (murine embryonic fibroblasts). The experiment in a line: [3H] thymidine uptake cell proliferation assay, NIH3T3. The settings on record: Mus musculus; NIH3T3, non-tumorigenic cell line; read-out: Cell Proliferation Effects (IC50 (nM)). Type of data set: cell-based.
The test system of data set [5] is HT-29 human colon carcinoma. Briefly: [3H] thymidine uptake cell proliferation assay, HT29. The format is cell-based. The settings on record: read-out: Cell Proliferation Effects (IC50 (nM)).
A further data set deals with U-87 (human glioma). Briefly: [3H] thymidine uptake cell proliferation assay, U87. The format is cell-based. As for the experimental part: Compounds were added to culture at mid-logarithmic growth and incubated for 20 hours. (N=8 for the values+standard errors). […] Cell lines A-549 (human lung carcinoma), B16-F1 (murine melanoma), B16-F10 (murine melanoma), DU-145 (human […] carcinoma), LS-180 (human colon carcinoma), PC3 (human prostate carcinoma), SKOV-3 (human ovarian carcinoma), U-87 (human glioma), and NIH-3T3 (murine embryonic fibroblasts) were all cultured in DMEM supplemented with 10% fetal bovine serum. M3 murine melanoma cells were cultured in DMEM/F12 1:1, and HT-29 human colon carcinoma and LL2 Lewis Lung […] lung carcinoma were cultured in RPMI1640. All the foregoing cell lines were obtained from ATCC. All cells were passaged regularly using 0.25% Trypsin-EDTA in order to maintain cells at exponential growth for various experiments. LS 180 cells were passaged without trypsin and were physically scraped off the culture flasks. In vitro [^3H] thymidine uptake assay. Proliferation can be measured by quantifying the amount of [^3H] thymidine uptake into cells using a β-counter, and therefore is a well-established diagnostic tool to measure DNA synthesis within the cells. […] The cells were allowed to adhere to the plates via incubation at 37° C. in 5% CO2 for 12–14 hours. […] Then, 10 μL of the compound was added to the pre-existing 90 μL per well, and incubated further at 37° C. in 5% CO2 for 20 hours. To measure thymidine incorporation, cells were fixed onto the culture wells by slowly adding ¼^th volume of cold 50% TCA into each well (25 μL to each well) and incubated for 1–2 hours at 4° C. Wells were washed 5 times with tap water to remove any free [^3H] thymidine in the media, and air-dried completely at room temperature. Then, 100 μL of scintillation fluid was added to each well and the activity counted using a Wallac Microbeta Counter.

The test system of another data set is B16-F1 (murine melanoma). Briefly: [3H] thymidine uptake cell proliferation assay, B16F1. The format is cell-based. The settings on record: Mus musculus, read-out: Cell Proliferation Effects (IC50 (nM)).
For another data set, the system named is DU-145 (human carcinoma). Briefly: [3H] thymidine uptake cell proliferation assay, DU145. The settings on record: read-out: Cell Proliferation Effects (IC50 (nM)). The format is cell-based.
Data set [6] relates to A-549 (human lung carcinoma). Briefly: [3H] thymidine uptake cell proliferation assay, A549. Type of data set: cell-based. The settings on record: A459 cells, read-out: Cell Proliferation in A459 IC50 in nm.
The subject of data set [7] is LL2 Lewis Lung human lung carcinoma. Briefly: [3H] thymidine uptake cell proliferation assay, LL2. The format is cell-based. Particulars: LL/2, read-out: Cell Proliferation Effects (IC50 (nM)).
Data set [8] relates to B16-F10 (murine melanoma). Briefly: [3H] thymidine uptake cell proliferation assay, B16F10. The format is cell-based. Particulars: Mus musculus, read-out: Cell Proliferation Effects (IC50 (nM)).
For data set [9] the following is noted: for comparison; cited from earlier work.
The mark [10] stands for this setting: U87, read-out: Cell Proliferation IC50 in nm (starred: tested in U7 cells, not U87), read-out: Cell Proliferation IC50 in nm (starred: tested in U7 cells, not A459).

In the case of `O=C1c2ccccc2-c2nn3nnnc3nc21` [KP-17483], the IC50 stood at 250 nM in data set [1]; 30 nM in the data set on M3 murine melanoma cells; 15 µM in [2]; 300 nM in data set [3]; 200 nM in data set [4]; 500 nM in [5]. The IC50 is 50 nM with U-87 (human glioma) (U-87 MG, U87, read-out: Cell Proliferation Effects (IC50 (nM))); 80 nM in the data set with B16-F1 (murine melanoma); 50 nM in the data set on DU-145 (human carcinoma); > 10 µM in data set [6]; 750 nM in data set [7]; 750 nM in data set [8]. For the same molecule, in data set [2], the “PKB inhibition in in vitro enzyme assay (in words)” value is recorded as “found to inhibit PKB”.
Turning to `O=C1c2ccccc2-c2nc3c(O)cccc3nc21` [KP-23172-001], the results for the IC50 in [2] and in data set [6] were > 100 µM and > 10 µM, respectively.
Consider `O=C(O)c1ccc2nc3c(nc2c1)-c1ccccc1C3=O` [KP-23172-002], for which the values for the IC50 in data set [2] and in [6] were > 100 µM and > 10 µM, respectively.
Take `O=C(c1ccccc1)c1ccc2nc3c(nc2c1)-c1ccccc1C3=O` [KP-23172-003]: the IC50 was > 100 µM in data set [2] and > 10 µM in [6].
Regarding `O=C1c2ccccc2-c2nc3c(O)nc(O)nc3nc21` [KP-23172-004], the IC50 in [2] was > 100 µM; in [6], > 10 µM.
Turning to `Cn1c(=O)c2nc3c(nc2n(C)c1=O)C(=O)c1ccccc1-3` [KP-23172-005], the IC50 was > 100 µM in data set [2] and > 10 µM in [6].
Take `O=C1c2ccccc2-c2nc3cc(Cl)c(Cl)cc3nc21` [KP-23172-006]: the IC50 in [2] is > 100 µM; in [6], > 10 µM.
For `Cc1cc2nc3c(nc2cc1C)-c1ccccc1C3=O` [KP-23172-007], in that order: > 100 µM and > 10 µM.
In the case of `c1ccc2c(c1)Cc1nn3nnnc3nc1-2` [KP-23172-008], the IC50 in data set [2] was > 100 µM; in data set [6], > 10 µM.
In the case of `O=C1c2ccccc2-c2nc3c(O)ncnc3nc21` [KP-23172-009], the IC50 in [2] was > 100 µM; in data set [6], > 10 µM.
Consider `Oc1ncnc2nc3c(nc12)CCc1ccccc1-3` [KP-23172-010], for which, in [2], the IC50 was > 100 µM.
Take `c1ccc2c(c1)CCc1nc3nnnn3nc1-2` [KP-23172-011]: the IC50 in data set [2] is > 100 µM.
For `Oc1cccc2nc3c(nc12)CCc1ccccc1-3` [KP-23172-012], in data set [2], the IC50 was > 100 µM.
On to `Cc1cc2nc3c(nc2cc1C)-c1ccccc1CC3` [KP-23172-013], for which, in data set [2], the IC50 is > 100 µM.
For the molecule `O=C1c2ccccc2-c2nc3c(nc21)CCCC3` [KP-23172-015], the IC50 was > 100 µM in [2] and > 10 µM in data set [6].
Turning to `O=C1c2ccccc2-c2nccnc21` [KP-23172-016], the IC50 in [2] is > 100 µM.
`Cc1cc2nc3c(nc2cc1C)-c1ccccc1/C3=N\Nc1ccccc1` [KP-23172-017]: the IC50 in data set [2] was > 100 µM.
`c1ccc2c(c1)[nH]c1nn3nnnc3nc12` [KP-23172-018]: the values for the IC50 (in data set [2]; in the data set with U-87 (human glioma) (setting [10])) were > 100 µM and > 10000 nM, respectively.
With `N#Cc1nc2c(nc1C#N)-c1ccccc1C2=O` [KP-23172-019], the values for the IC50 (in data set [2]; in the data set on U-87 (human glioma) (setting [10])) were > 100 µM and > 10000 nM, respectively.
For the molecule `O=C1c2cc3ccccc3cc2-c2nc3nnnn3nc21` [KP-23172-020], the IC50 in data set [2] is > 100 µM; in [6] it was 0.1 µM.
Regarding `O=C(O)c1nc2c(nc1C(=O)O)-c1ccccc1C2=O` [KP-23172-021], the IC50 in [2] is > 100 µM; in data set [6], > 10 µM.
Consider `O=c1c2ccccc2c2nc3c(=S)nc(S)c3nc12` [KP-23172-022], for which the figures for the IC50 (in data set [2]; with U-87 (human glioma) (setting [10])) were > 100 µM and 5000 nM, respectively.
Regarding `N/N=C1/c2ccccc2-c2nc3nnnn3nc21` [KP-23172-023], the IC50 in data set [2] was > 100 µM; in data set [6], 0.5 µM.
Turning to `c1ccc(N/N=C2/c3ccccc3-c3nc4nnnn4nc32)cc1` [KP-23172-024], the IC50 in data set [2] was > 100 µM; in data set [6], > 10 µM.
As to `c1ccc(N/N=C2\C(=N/Nc3ccccc3)Nc3ccccc32)cc1` [KP-23172-025], in [2], the IC50 was > 100 µM.
As to `O=C1c2ccccc2-c2nc3cc4ccccc4cc3nc21` [KP-23172-026], in data set [2], the IC50 was > 100 µM.
Turning to `N#CC(=O)N/N=C1/c2ccccc2-c2nc3nnnn3nc21` [KP-23172-027], the IC50 in data set [2] is > 100 µM; in data set [6] it was 0.5 µM.
For `Cc1ccc2nc3c(nc2c1)-c1ccccc1C3=O` [KP-23172-028], in that order: > 100 µM and > 10 µM.
With `Cc1ccc2nc3c(nc2c1)C(=O)c1ccccc1-3` [KP-23172-029], the IC50 in data set [2] is > 100 µM; in data set [6], > 10 µM.
As to `COc1ccc2c(c1)-c1nc3nnnn3nc1C2=O` [KP-23172-030], the values for the IC50 in data set [2] and in data set [6] were 20 µM and 0.046 µM, respectively.
In the case of `O=C1c2ccccc2-c2nc3c4ccccc4c4ccccc4c3nc21` [KP-23172-31], in data set [2], the IC50 is > 100 µM.
As for `Clc1ccc(COC(Cn2ccnc2)c2ccc(Cl)cc2Cl)c(Cl)c1` (centres unmarked) [miconazole], the “1:1 binding constant (reported in the literature)” value in data set [9] is 363.
